How the values were obtained:
16S rRNA = assay: Fluorescence anisotropy competition binding (CRP displacement) to 16S rRNA; details: competition with CRP probe, 20° C., pH 7.5; read-out: binding force (bond constant KD) against 16s rRNA
Experimental: (§1) The RNA of the present invention was prepared with sense DNA of 16S rRNA (sequence listing 1) and an antisense DNA of 16S rRNA (sequence listing 2); a sense DNA of RRE RNA (sequence listing 3) and an antisense DNA of RRE RNA (sequence listing 4); and a sense DNA of TS RNA (sequence listing 5) and an antisense DNA of TS RNA (sequence listing 6). […]
(§2) The paromomycin bonded with tetramethylrhodamine (hereinafter referred to as […]) is used as a luminescence fluorescent probe. The luminescence anisotropy is measured by establishing a thermostat of 20° C. at the Perkin-Elmer LS-50B luminescence spectroscope. The luminescence absorptance of CRP is 510 nm and its luminescence fluorescent is observed at 550 nm. […] The luminescence was measured at an elution buffer using 140 mM NaCl, 5 mM KCl, 1 mM MgCl2, and 20 mM HEPES pH 7.5. […]
(§3) A is the luminescence anisotropy value of CRP when RNA is present,
(§4) A0 is the luminescence anisotropy value of CRP when RNA is not present,
(§5) DA is the difference of luminescence anisotropy value when RNA is not present between various RNA concentrations, […]
(§6) If the newly prepared compound is added to the solution after inducing the bonding of the said RNA and CRP, CRP is separated from RNA by a competitive bonding reaction and the compound to be measured achieves a KD value by bonding with RNA. […]
(§7) [Aminoglycoside]0 is the initial concentration of aminoglycoside to be measured, […]

RRE RNA = assay: Fluorescence anisotropy competition binding (CRP displacement) to RRE RNA; set-up: species or system HIV; details: competition with CRP probe, 20° C., pH 7.5; read-out: binding force (bond constant KD) against RRE RNA
Experimental: as §1, §2, §3, §4, §5, §6, §7

TS RNA = assay: Fluorescence anisotropy competition binding (CRP displacement) to TS RNA; details: competition with CRP probe, 20° C., pH 7.5; read-out: binding force (bond constant KD) against TS RNA
Experimental: as §1, §2, §3, §4, §5, §6, §7

Measured: Kd

Neomycin [reference compound]
> 2000 nM: all assays above
